The record followed here is patent US20230151003A1, “COMPOUNDS AND METHODS OF USE” (Exelixis, Inc., priority 2020, published 2023).

Common to all, as to format: cell-based
One test concerns the target T1, Mer (Homo sapiens, UniProt Q12866).
T1 construct: host or cells: 293A cells (Thermo Fisher #R70507)
T1 sequence (Q12866 21-999): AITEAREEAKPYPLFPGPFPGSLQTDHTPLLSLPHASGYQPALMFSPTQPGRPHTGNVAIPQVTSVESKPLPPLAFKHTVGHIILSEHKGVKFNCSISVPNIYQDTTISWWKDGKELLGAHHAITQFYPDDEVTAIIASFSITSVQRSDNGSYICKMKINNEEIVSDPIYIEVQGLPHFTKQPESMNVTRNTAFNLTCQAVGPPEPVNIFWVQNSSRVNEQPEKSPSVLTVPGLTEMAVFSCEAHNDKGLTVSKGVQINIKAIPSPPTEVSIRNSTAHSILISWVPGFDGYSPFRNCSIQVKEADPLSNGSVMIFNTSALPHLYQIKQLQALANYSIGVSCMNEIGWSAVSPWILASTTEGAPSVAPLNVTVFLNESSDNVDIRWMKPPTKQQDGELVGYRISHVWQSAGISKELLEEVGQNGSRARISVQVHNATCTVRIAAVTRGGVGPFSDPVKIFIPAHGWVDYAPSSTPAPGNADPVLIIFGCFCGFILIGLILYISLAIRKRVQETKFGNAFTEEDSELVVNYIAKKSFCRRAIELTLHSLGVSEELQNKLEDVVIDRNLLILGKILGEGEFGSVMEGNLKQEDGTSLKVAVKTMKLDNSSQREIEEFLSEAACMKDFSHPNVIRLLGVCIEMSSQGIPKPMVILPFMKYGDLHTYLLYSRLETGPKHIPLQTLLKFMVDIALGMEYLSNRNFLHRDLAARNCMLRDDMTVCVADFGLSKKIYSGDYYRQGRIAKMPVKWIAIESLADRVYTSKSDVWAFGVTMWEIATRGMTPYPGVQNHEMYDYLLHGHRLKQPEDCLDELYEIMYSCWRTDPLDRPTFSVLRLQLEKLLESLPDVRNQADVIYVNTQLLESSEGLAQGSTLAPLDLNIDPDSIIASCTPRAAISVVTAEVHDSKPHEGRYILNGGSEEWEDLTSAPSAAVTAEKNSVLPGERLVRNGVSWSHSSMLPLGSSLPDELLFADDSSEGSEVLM
Kind of test: Mer autophosphorylation ELISA in transient transfected 293A cells. To be noted: Table 3 Cellular Activities; MERTK-transfected 293A cells, phospho-Mer ELISA. How it is done:
293A cells (Thermo Fisher #R70507) were seeded at 1.5×10^6 cells/well onto 100 mm dish (Greiner #664169), in DMEM (Thermo Fisher #11995-040) containing 10% FBS (Thermo Fisher #26140-079), 1% MEM NEAA (Thermo Fisher #11140-050), 1% GlutaMax (Thermo Fisher #35050-061), and 1% Penicillin Streptomycin (Thermo Fisher #15140-122). 293A cells were incubated at 37° C., 5% CO2 for 24 h and then transfected with 6μg MERTK DNA (Genecopoeia #EX-Z8208-M02) using TransIT LT1 transfection reagent (Mirus-Bio #MIR2305). After 24 h incubation, the transfected 293A cells were seeded at 1×10^5 cells/well onto 96-well plates (Corning #3904) in DMEM growth medium overnight. Test compounds were serially diluted to produce an 8-point dose curve in fresh serum-free medium to a final concentration of 0.3% DMSO (vehicle) and added to the cells and incubated for 1 h. Cells were then immediately lysed with 150 μL of cold 1× lysis buffer […], 137 mM sodium chloride, 2 mM EDTA, 10% glycerol, 1% NP-40 alternative, 1 mM activated sodium orthovanadate, 1 mM PefaBloc SC (Sigma-Aldrich #11429868001), protease/phosphatase inhibitor tablet (Thermo Fisher #A32959)]. Lysates were clarified by centrifugation and 50 μL/well added into the human phospho-Mer DuoSet IC ELISA (R&D Systems #DYC2579-2). Assay was performed according to manufacturer's instructions and sample phospho-Mer concentrations were extrapolated using human phospho-Mer control (R&D Systems #841793) as a standard. Positive control wells (100% activity) contained DMSO-treated cell lysates. Negative control wells (0% activity) contained reference inhibitor-treated cell lysates. IC50 values were calculated by nonlinear regression analysis using a 4-parameter logistic curve fit in ActivityBase XE (IDBS).
(In general: An ELISA detects its analyte on a solid surface through an enzyme-linked reagent.)

For another test, the target named is Met (Homo sapiens, UniProt P08581). Kind of test: Met autophosphorylation ELISA in PC-3 cells. Details: endogenous in cells; host or cells: PC-3 prostate cancer cells (ATCC #CRL-1435). To be noted: Table 3 Cellular Activities, HGF-stimulated, phospho-Met ELISA, read-out: c-Met IC50. How it is done:
PC-3 prostate cancer cells (ATCC #CRL-1435) were seeded at 4×10^4 cells/well onto 24-well plates (Greiner #662165), in DMEM (Thermo Fisher #11995-040) containing 10% FBS (Thermo Fisher #26140-079), 1% MEM NEAA (Thermo Fisher #11140-050), 1% GlutaMax (Thermo Fisher #35050-061), and 1% Penicillin Streptomycin (Thermo Fisher #15140-122). PC-3 cells were incubated at 37° C., 5% CO2 for 24 h and then starved for 3 h in serum-free medium. Test compounds were serially diluted to produce an 8-point dose curve in fresh serum-free medium to a final concentration of 0.3% DMSO (vehicle) and added to the cells and incubated for 1 h. Cells were then stimulated with 100 ng/mL recombinant human HGF (R&D Systems #294-HG-250) for 10 min, washed with cold PBS, and immediately lysed with 130 μL of cold 1× lysis buffer [20 mM Tris, 137 mM sodium chloride, 2 mM EDTA, 10% glycerol, 1% NP-40 alternative, 1 mM activated sodium orthovanadate, 1 mM PefaBloc SC (Sigma-Aldrich #11429868001), protease/phosphatase inhibitor tablet (Thermo Fisher #A32959)]. Lysates were clarified by centrifugation and 100 μL/well added into the PathScan phospho-Met (panTyr) Sandwich ELISA (Cell Signaling Technology #7333). Assay was performed according to manufacturer's instructions. Positive control wells (100% activity) contained HGF-stimulated, DMSO-treated cell lysates. Negative control wells (0% activity) contained HGF-stimulated, reference inhibitor-treated cell lysates. IC50 values were calculated by nonlinear regression analysis using a 4-parameter logistic curve fit in ActivityBase XE (IDBS).

The target in another test is KDR (Homo sapiens, UniProt P35968). Kind of test: KDR autophosphorylation ELISA in HUVEC cells. To be noted: Table 3 Cellular Activities, VEGF165-stimulated, phospho-KDR ELISA. Details: endogenous in cells; host or cells: HUVEC (Lonza #C2519A). The method, then:
Human umbilical vein endothelial cells or HUVEC (Lonza #C2519A) were seeded at 2×10^4 cells/well onto 96-well plates (Corning #3904), in EGM-2 growth medium (Lonza #CC-3162) containing 1% Penicillin Streptomycin (Thermo Fisher #15140-122). HUVEC cells were incubated at 37° C., 5% CO2 for 24 h and then starved for 24 h in serum-free EBM-2 basal medium (Lonza #CC-3156) containing 1% Penicillin Streptomycin. Test compounds were serially diluted to produce an 8-point dose curve in fresh serum-free medium to a final concentration of 0.3% DMSO (vehicle) and added to the cells and incubated for 1 h. Cells were then stimulated with 100 ng/mL recombinant human VEGF165 (R&D Systems #293-VE-500) for 5 min, washed with cold PBS, and immediately lysed with 130 μL of cold 1× lysis buffer [20 mM Tris, 137 mM sodium chloride, 2 mM EDTA, 10% glycerol, 1% NP-40 alternative, 1 mM activated sodium orthovanadate, 1 mM PefaBloc SC (Sigma-Aldrich #11429868001), protease/phosphatase inhibitor tablet (Thermo Fisher #A32959)]. Lysates were collected and 100 μL/well added into the human phospho-KDR DuoSet IC ELISA (R&D Systems #DYC1766-2). Assay was performed according to manufacturer's instructions and sample phospho-KDR concentrations were extrapolated using human phospho-KDR control (R&D Systems #841421) as a standard. Positive control wells (100% activity) contained VEGF165-stimulated, DMSO-treated cell lysates. Negative control wells (0% activity) contained non-stimulated cell lysates. IC50 values were calculated by nonlinear regression analysis using a 4-parameter logistic curve fit in ActivityBase XE (IDBS).

pIC50: −log10 of the molar value.

Chain of KDR (P35968 20-1356): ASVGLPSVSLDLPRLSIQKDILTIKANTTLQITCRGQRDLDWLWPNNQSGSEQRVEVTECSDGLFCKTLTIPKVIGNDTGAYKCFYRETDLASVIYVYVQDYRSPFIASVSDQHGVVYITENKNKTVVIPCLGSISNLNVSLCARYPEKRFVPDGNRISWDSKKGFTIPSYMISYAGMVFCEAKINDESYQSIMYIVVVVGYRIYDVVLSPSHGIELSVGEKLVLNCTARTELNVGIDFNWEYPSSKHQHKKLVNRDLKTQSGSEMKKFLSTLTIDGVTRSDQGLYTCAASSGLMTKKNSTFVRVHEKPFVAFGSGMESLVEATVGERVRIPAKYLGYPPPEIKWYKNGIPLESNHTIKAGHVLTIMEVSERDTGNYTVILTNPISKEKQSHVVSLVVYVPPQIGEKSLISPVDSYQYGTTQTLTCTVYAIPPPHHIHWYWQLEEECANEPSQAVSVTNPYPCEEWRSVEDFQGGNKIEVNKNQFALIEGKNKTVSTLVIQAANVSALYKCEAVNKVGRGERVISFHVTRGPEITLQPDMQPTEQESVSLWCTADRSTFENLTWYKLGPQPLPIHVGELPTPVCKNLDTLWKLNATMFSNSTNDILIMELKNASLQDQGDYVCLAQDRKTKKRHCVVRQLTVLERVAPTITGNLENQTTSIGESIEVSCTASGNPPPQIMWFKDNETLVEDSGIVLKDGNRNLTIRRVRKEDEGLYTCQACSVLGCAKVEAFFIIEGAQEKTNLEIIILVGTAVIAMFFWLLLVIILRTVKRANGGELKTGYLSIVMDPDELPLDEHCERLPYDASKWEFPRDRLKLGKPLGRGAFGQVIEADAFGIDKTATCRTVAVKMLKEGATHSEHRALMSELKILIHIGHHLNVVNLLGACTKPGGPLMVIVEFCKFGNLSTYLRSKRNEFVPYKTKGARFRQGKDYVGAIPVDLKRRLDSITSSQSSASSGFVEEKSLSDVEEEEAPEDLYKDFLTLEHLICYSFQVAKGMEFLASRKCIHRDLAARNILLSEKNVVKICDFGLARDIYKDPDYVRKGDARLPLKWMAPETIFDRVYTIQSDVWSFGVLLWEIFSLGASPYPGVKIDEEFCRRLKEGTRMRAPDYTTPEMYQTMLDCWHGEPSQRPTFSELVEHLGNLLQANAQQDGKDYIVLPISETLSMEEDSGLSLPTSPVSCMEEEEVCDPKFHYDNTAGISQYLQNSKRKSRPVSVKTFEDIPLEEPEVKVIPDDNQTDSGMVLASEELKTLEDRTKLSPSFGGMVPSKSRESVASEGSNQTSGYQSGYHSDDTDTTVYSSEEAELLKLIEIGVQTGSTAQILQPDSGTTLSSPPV
Chain of Met (P08581 25-1390): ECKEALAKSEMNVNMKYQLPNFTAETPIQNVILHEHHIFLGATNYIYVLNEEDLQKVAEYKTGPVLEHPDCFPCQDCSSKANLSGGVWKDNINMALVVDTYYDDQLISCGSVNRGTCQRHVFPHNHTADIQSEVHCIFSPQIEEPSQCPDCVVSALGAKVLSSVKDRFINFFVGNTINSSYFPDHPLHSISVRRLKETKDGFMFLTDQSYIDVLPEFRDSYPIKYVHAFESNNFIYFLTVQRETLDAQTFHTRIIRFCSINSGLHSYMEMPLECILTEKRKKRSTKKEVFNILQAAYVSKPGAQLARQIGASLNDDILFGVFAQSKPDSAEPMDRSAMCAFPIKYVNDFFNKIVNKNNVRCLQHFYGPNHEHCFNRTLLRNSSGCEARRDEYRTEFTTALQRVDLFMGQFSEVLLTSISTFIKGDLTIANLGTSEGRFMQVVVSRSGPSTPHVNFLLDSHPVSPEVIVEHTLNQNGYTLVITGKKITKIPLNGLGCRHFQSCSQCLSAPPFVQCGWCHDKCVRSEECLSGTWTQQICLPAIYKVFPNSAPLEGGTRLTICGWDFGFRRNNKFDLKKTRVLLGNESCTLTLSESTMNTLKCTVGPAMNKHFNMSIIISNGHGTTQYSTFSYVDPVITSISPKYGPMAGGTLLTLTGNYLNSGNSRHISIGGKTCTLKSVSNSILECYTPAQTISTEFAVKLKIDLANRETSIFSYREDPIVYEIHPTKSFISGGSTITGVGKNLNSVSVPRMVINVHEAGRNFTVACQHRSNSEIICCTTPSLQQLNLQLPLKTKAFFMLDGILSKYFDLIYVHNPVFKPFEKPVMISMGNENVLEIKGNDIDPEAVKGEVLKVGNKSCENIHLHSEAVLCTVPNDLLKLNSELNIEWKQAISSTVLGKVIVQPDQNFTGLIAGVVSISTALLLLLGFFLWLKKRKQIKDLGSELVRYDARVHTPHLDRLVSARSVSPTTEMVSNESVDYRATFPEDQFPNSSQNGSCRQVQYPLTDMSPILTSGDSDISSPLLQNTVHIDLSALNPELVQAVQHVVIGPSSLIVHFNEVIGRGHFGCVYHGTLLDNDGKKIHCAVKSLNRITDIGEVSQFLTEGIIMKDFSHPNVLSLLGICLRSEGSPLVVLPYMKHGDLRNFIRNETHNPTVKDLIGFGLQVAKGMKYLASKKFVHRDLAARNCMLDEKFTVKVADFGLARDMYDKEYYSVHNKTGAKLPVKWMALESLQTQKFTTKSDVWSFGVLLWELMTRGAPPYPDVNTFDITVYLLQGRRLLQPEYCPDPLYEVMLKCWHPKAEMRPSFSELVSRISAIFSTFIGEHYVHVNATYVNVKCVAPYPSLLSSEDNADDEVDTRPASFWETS

As usually defined, the pIC50 is the negative decadic logarithm of the IC50, by convention in mol/L. Regarding `COc1cc2nccc(Oc3ccc(NC(=O)c4c(C)ncc(-c5ccc(C=O)o5)c4O)cc3F)c2nc1OC` [Compound 121, N-[4-[(6,7-Dimethoxy-1,5-naphthyridin-4-yl)oxy]-3-fluorophenyl]-5-(5-formylfuran-2-yl)-4-hydroxy-2-methylpyridine-3-carboxamide], the results for the negative-log IC50 (pIC50) on Mer, on Met and on KDR were at least 7.00, 6.52 to 7.00 and at least 7.00, respectively.
Take `COc1cc2nccc(Oc3ccc(NC(=O)c4c(C)ncc(-c5ccoc5)c4O)cc3F)c2nc1OC` [Compound 122, N-[4-[(6,7-Dimethoxy-1,5-naphthyridin-4-yl)oxy]-3-fluorophenyl]-5-(furan-3-yl)-4-hydroxy-2-methylpyridine-3-carboxamide]: the pIC50 at Mer, at Met and against KDR was at least 7.00 each time.
As for `COc1cc2nccc(Oc3ccc(NC(=O)c4c(C)ncc(-c5ccc(C)s5)c4O)cc3F)c2nc1OC` [Compound 124, N-[4-[(6,7-Dimethoxy-1,5-naphthyridin-4-yl)oxy]-3-fluorophenyl]-4-hydroxy-2-methyl-5-(5-methylthiophen-2-yl)pyridine-3-carboxamide], the pIC50 against Mer, at Met and against KDR was at least 7.00 each time.
Turning to `CCOc1ccc(-n2c(C)ccc(C(=O)Nc3ccc(Oc4ccnc5cc(OC)c(OC)nc45)c(F)c3)c2=O)nc1` [Compound 212, N-[4-[(6,7-Dimethoxy-1,5-naphthyridin-4-yl)oxy]-3-fluorophenyl]-1-(5-ethoxypyridin-2-yl)-6-methyl-2-oxopyridine-3-carboxamide], the pIC50 on Met was 6.52 to 7.00.
Regarding `CCOc1ccc(-n2c(C)ccc(C(=O)Nc3ccc(Oc4ccnc5cc(OC)cnc45)c(F)c3)c2=O)nc1` [Compound 213, 1-(5-Ethoxypyridin-2-yl)-N-[3-fluoro-4-[(7-methoxy-1,5-naphthyridin-4-yl)oxy]phenyl]-6-methyl-2-oxopyridine-3-carboxamide], the pIC50 at Met was 6.00 to 6.52.
For the compound `COc1cc2nccc(Oc3ccc(NC(=O)c4c5n(c(C)c(-c6ccoc6)c4=O)CCOC5)cc3)c2nc1OC` [Compound 311, N-[4-[(6,7-Dimethoxy-1,5-naphthyridin-4-yl)oxy]phenyl]-7-(furan-3-yl)-6-methyl-8-oxo-3,4-dihydro-1H-pyrido[2,1-c][1,4]oxazine-9-carboxamide], the pIC50 against Mer and on Met was at least 7.00 each time.
In the case of `COc1cc2nccc(Oc3ccc(NC(=O)c4c5n(c(C)c(-c6ccsc6)c4=O)CCOC5)cc3)c2nc1OC` [Compound 312, N-[4-[(6,7-Dimethoxy-1,5-naphthyridin-4-yl)oxy]phenyl]-6-methyl-8-oxo-7-thiophen-3-yl-3,4-dihydro-1H-pyrido [2,1-c][1,4]oxazine-9-carboxamide], the pIC50 at Mer and on Met was at least 7.00 in each case.
On to `COc1cc2nccc(Oc3ccc(NC(=O)c4c5n(c(C)c(-c6cc(C)cs6)c4=O)CCOC5)cc3)c2nc1OC` [Compound 313, N-[4-[(6,7-Dimethoxy-1,5-naphthyridin-4-yl)oxy]phenyl]-6-methyl-7-(4-methylthiophen-2-yl)-8-oxo-3,4-dihydro-1H-pyrido[2,1-c][1,4]oxazine-9-carboxamide], for which the pIC50 on Mer is at least 7.00; on Met, 6.52 to 7.00.
The matching figures for `COc1cc2nccc(Oc3ccc(NC(=O)c4c5n(c(C)c(-c6ccco6)c4=O)CCOC5)cc3F)c2nc1OC` [Compound 314, N-[4-[(6,7-Dimethoxy-1,5-naphthyridin-4-yl)oxy]-3-fluorophenyl]-7-(furan-2-yl)-6-methyl-8-oxo-3,4-dihydro-1H-pyrido[2,1-c][1,4]oxazine-9-carboxamide]: at least 7.00 and at least 7.00.
For `COc1cc2nccc(Oc3ccc(NC(=O)c4c5n(c(C)c(-c6ccco6)c4=O)CCOC5)cc3)c2nc1OC` [Compound 315, N-[4-[(6,7-Dimethoxy-1,5-naphthyridin-4-yl)oxy]phenyl]-7-(furan-2-yl)-6-methyl-8-oxo-3,4-dihydro-1H-pyrido[2,1-c][1,4]oxazine-9-carboxamide], the negative logarithm of the IC50 (pIC50) against Mer and at Met was at least 7.00 throughout.
For the compound `COc1cc2nccc(Oc3ccc(NC(=O)c4c5n(c(C)c(-c6cccs6)c4=O)CCOC5)cc3)c2nc1OC` [Compound 316, N-[4-[(6,7-Dimethoxy-1,5-naphthyridin-4-yl)oxy]phenyl]-6-methyl-8-oxo-7-thiophen-2-yl-3,4-dihydro-1H-pyrido [2,1-c][1,4]oxazine-9-carboxamide], the pIC50 against Mer and at Met was at least 7.00 throughout.
